Source: the NIST ThermoML archive (doi:10.1021/je800334m)
± gives the expanded uncertainty stated by the source.

Experiments:
[1] = Liquid
[2] = excess molar enthalpy (molar enthalpy of mixing); xn = mol fraction of the nth substance listed; conditions: Liquid

CCO [ethanol]
molar volume [m3/mol], [1]
Conditions | 298.15 K | 313.15 K | 328.15 K
100 kPa | 5.867e-05 ± 4e-08 | 5.964e-05 ± 5e-08 | 6.067e-05 ± 5e-08
10000 kPa | 5.803e-05 ± 7e-08 | 5.899e-05 ± 8e-08 | 6.001e-05 ± 9e-08

CN(C)CCO [2-(N,N-dimethylamino)ethanol]
molar volume [m3/mol], [1]
Conditions | 298.15 K | 313.15 K | 328.15 K
100 kPa | 0.0001009 ± 5e-08 | 0.0001024 ± 5e-08 | 0.0001039 ± 5e-08
10000 kPa | 0.0001009 ± 7e-08 | 0.0001024 ± 8e-08 | 0.0001039 ± 9e-08

CC(C)O [propan-2-ol]
molar volume [m3/mol], [1]
Conditions | 298.15 K | 313.15 K | 328.15 K
100 kPa | 7.694e-05 ± 6e-08 | 7.822e-05 ± 6e-08 | 7.962e-05 ± 7e-08
10000 kPa | 7.594e-05 ± 1e-07 | 7.72e-05 ± 1e-07 | 7.857e-05 ± 1.1e-07

CO [methanol]
molar volume [m3/mol], [1]
Conditions | 298.15 K | 313.15 K | 328.15 K
100 kPa | 4.073e-05 ± 5e-08 | 4.146e-05 ± 6e-08 | 4.221e-05 ± 7e-08
10000 kPa | 4.024e-05 ± 5e-08 | 4.096e-05 ± 6e-08 | 4.17e-05 ± 7e-08

CN(C)CCO [2-(N,N-dimethylamino)ethanol] + CCCO
excess molar enthalpy [kJ/mol], [2], Flow calorimetry
Conditions | 298.2 K | 313.2 K | 328.2 K
100 kPa, x1 = 0.2007 | -0.191 ± 0.0044 | – | -0.264 ± 0.006
100 kPa, x1 = 0.2509 | -0.214 ± 0.0048 | – | -0.291 ± 0.0065
100 kPa, x1 = 0.2984 | – | -0.251 ± 0.0056 | –
100 kPa, x1 = 0.3008 | -0.231 ± 0.0052 | – | -0.313 ± 0.007
100 kPa, x1 = 0.3505 | -0.244 ± 0.0055 | -0.267 ± 0.006 | -0.327 ± 0.0072
100 kPa, x1 = 0.3999 | -0.251 ± 0.0056 | – | -0.333 ± 0.0074
100 kPa, x1 = 0.4012 | – | -0.276 ± 0.0062 | –
100 kPa, x1 = 0.4501 | – | -0.279 ± 0.0062 | –
100 kPa, x1 = 0.4507 | -0.252 ± 0.0056 | – | -0.333 ± 0.0074
100 kPa, x1 = 0.499 | -0.254 ± 0.0057 | – | -0.327 ± 0.0072
100 kPa, x1 = 0.5004 | – | -0.277 ± 0.0062 | –
100 kPa, x1 = 0.5488 | – | -0.269 ± 0.006 | –
100 kPa, x1 = 0.5509 | -0.245 ± 0.0055 | – | -0.313 ± 0.0069
100 kPa, x1 = 0.5985 | – | -0.257 ± 0.0057 | –
100 kPa, x1 = 0.6 | -0.234 ± 0.0053 | – | -0.296 ± 0.0066
100 kPa, x1 = 0.6497 | – | -0.239 ± 0.0054 | –
100 kPa, x1 = 0.6505 | -0.219 ± 0.0049 | – | -0.272 ± 0.0061
100 kPa, x1 = 0.6986 | – | -0.217 ± 0.0049 | –
100 kPa, x1 = 0.7001 | – | – | -0.245 ± 0.0055
100 kPa, x1 = 0.7488 | – | -0.19 ± 0.0044 | –
100 kPa, x1 = 0.8005 | – | -0.158 ± 0.0037 | –
100 kPa, x1 = 0.8495 | – | -0.124 ± 0.003 | –
10000 kPa, x1 = 0.2001 | -0.191 ± 0.0044 | – | -0.264 ± 0.006
10000 kPa, x1 = 0.2492 | – | -0.231 ± 0.0052 | –
10000 kPa, x1 = 0.2503 | -0.214 ± 0.0048 | – | -0.293 ± 0.0066
10000 kPa, x1 = 0.2998 | – | -0.256 ± 0.0057 | –
10000 kPa, x1 = 0.3004 | -0.231 ± 0.0052 | – | -0.317 ± 0.007
10000 kPa, x1 = 0.3489 | – | -0.27 ± 0.006 | –
10000 kPa, x1 = 0.3502 | -0.243 ± 0.0055 | – | -0.331 ± 0.0073
10000 kPa, x1 = 0.3995 | -0.252 ± 0.0056 | -0.279 ± 0.0062 | -0.338 ± 0.0075
10000 kPa, x1 = 0.4484 | – | -0.282 ± 0.0063 | –
10000 kPa, x1 = 0.4504 | -0.255 ± 0.0057 | – | -0.339 ± 0.0075
10000 kPa, x1 = 0.4986 | – | -0.28 ± 0.0062 | –
10000 kPa, x1 = 0.5007 | -0.253 ± 0.0057 | – | -0.332 ± 0.0073
10000 kPa, x1 = 0.5504 | -0.245 ± 0.0055 | -0.272 ± 0.0061 | -0.32 ± 0.0071
10000 kPa, x1 = 0.5994 | -0.234 ± 0.0053 | – | -0.302 ± 0.0067
10000 kPa, x1 = 0.6001 | – | -0.258 ± 0.0058 | –
10000 kPa, x1 = 0.6497 | -0.221 ± 0.005 | – | -0.279 ± 0.0062
10000 kPa, x1 = 0.6512 | – | -0.24 ± 0.0054 | –
10000 kPa, x1 = 0.7 | – | -0.217 ± 0.0049 | –
10000 kPa, x1 = 0.7501 | – | -0.189 ± 0.0044 | –
10000 kPa, x1 = 0.8015 | – | -0.157 ± 0.0037 | –
10000 kPa, x1 = 0.8503 | – | -0.123 ± 0.0031 | –

CCCO [propan-1-ol]
molar volume [m3/mol], [1]
Conditions | 298.15 K | 313.15 K | 328.15 K
100 kPa | 7.514e-05 ± 5e-08 | 7.632e-05 ± 6e-08 | 7.759e-05 ± 6e-08
10000 kPa | 7.452e-05 ± 9e-08 | 7.569e-05 ± 9e-08 | 7.694e-05 ± 1e-07

CN(C)CCO [2-(N,N-dimethylamino)ethanol] + CC(C)O
excess molar enthalpy [kJ/mol], [2]
Conditions | 298.2 K | 313.2 K | 328.2 K
100 kPa, x1 = 0.0496 | – | -0.0169 ± 0.0018 | –
100 kPa, x1 = 0.0499 | – | – | -0.0359 ± 0.0021
100 kPa, x1 = 0.1008 | 0.0162 ± 0.0019 | -0.0173 ± 0.0019 | –
100 kPa, x1 = 0.1014 | – | – | -0.0511 ± 0.0024
100 kPa, x1 = 0.1502 | 0.0279 ± 0.0021 | -0.0127 ± 0.0018 | –
100 kPa, x1 = 0.1511 | – | – | -0.0566 ± 0.0025
100 kPa, x1 = 0.1994 | 0.0372 ± 0.0022 | -0.007 ± 0.0018 | –
100 kPa, x1 = 0.2005 | – | – | -0.0574 ± 0.0026
100 kPa, x1 = 0.2501 | 0.0433 ± 0.0023 | -0.0027 ± 0.0017 | –
100 kPa, x1 = 0.2513 | – | – | -0.0566 ± 0.0026
100 kPa, x1 = 0.3005 | 0.0467 ± 0.0024 | 0.0009 ± 0.0017 | –
100 kPa, x1 = 0.3018 | – | – | -0.0553 ± 0.0026
100 kPa, x1 = 0.3504 | 0.048 ± 0.0024 | 0.0029 ± 0.0017 | –
100 kPa, x1 = 0.3519 | – | – | -0.0543 ± 0.0026
100 kPa, x1 = 0.3999 | 0.0476 ± 0.0024 | 0.0034 ± 0.0017 | –
100 kPa, x1 = 0.4015 | – | – | -0.0533 ± 0.0025
100 kPa, x1 = 0.4507 | 0.0454 ± 0.0023 | 0.003 ± 0.0017 | –
100 kPa, x1 = 0.4524 | – | – | -0.0518 ± 0.0025
100 kPa, x1 = 0.501 | 0.042 ± 0.0023 | 0.002 ± 0.0017 | –
100 kPa, x1 = 0.5026 | – | – | -0.0501 ± 0.0024
100 kPa, x1 = 0.5505 | 0.0373 ± 0.0022 | -0.0005 ± 0.0017 | –
100 kPa, x1 = 0.5522 | – | – | -0.0481 ± 0.0024
100 kPa, x1 = 0.5993 | 0.0328 ± 0.0021 | -0.0012 ± 0.0017 | –
100 kPa, x1 = 0.6009 | – | – | -0.0458 ± 0.0023
100 kPa, x1 = 0.6508 | – | – | -0.0429 ± 0.0023
10000 kPa, x1 = 0.0499 | – | -0.0184 ± 0.0019 | -0.0392 ± 0.0022
10000 kPa, x1 = 0.0998 | 0.0136 ± 0.0018 | -0.0194 ± 0.0019 | -0.0539 ± 0.0025
10000 kPa, x1 = 0.1494 | – | -0.0191 ± 0.0021 | –
10000 kPa, x1 = 0.2005 | 0.0345 ± 0.0022 | -0.0099 ± 0.0018 | -0.0607 ± 0.0027
10000 kPa, x1 = 0.2496 | 0.0401 ± 0.0023 | -0.0056 ± 0.0018 | -0.0598 ± 0.0027
10000 kPa, x1 = 0.3 | 0.0433 ± 0.0023 | -0.0025 ± 0.0017 | -0.0583 ± 0.0026
10000 kPa, x1 = 0.35 | 0.0447 ± 0.0023 | -0.0007 ± 0.0017 | -0.0566 ± 0.0026
10000 kPa, x1 = 0.3995 | 0.0446 ± 0.0023 | -0.0001 | -0.055 ± 0.0026
10000 kPa, x1 = 0.4504 | 0.0431 ± 0.0023 | -0.0004 ± 0.0017 | -0.0532 ± 0.0025
10000 kPa, x1 = 0.5006 | 0.0406 ± 0.0022 | -0.0013 ± 0.0017 | -0.0513 ± 0.0025
10000 kPa, x1 = 0.5501 | 0.0372 ± 0.0022 | -0.0026 ± 0.0017 | -0.0492 ± 0.0024
10000 kPa, x1 = 0.6009 | 0.033 ± 0.0021 | – | -0.0466 ± 0.0024
10000 kPa, x1 = 0.6508 | – | – | -0.0457 ± 0.0023
